Source: PMC11762167, “G Protein-Coupled Receptor 17 Inhibits Glucagon-like Peptide-1 Secretion via a Gi/o-Dependent Mechanism in Enteroendocrine Cells” (Biomolecules, 2024)
One block for each compound: values may come before it. Starred links: 1 amine or outer side, 2 acyl side, 3 side chain; linkers in the order of their positions; H or OH if unused. Positions of bridges follow the written chain, without caps; N, C: chain ends. Non-standard residues stand in square brackets, D forms with d. Residues, ends and D or L forms follow the SMILES beside them. No end group written: not given here. X1 = CC(=O)NC(C(=O)OC(C(C)C)C(N[*:1])C(=O)[*:2])C(O)C(C)C; PhLac = O=C(O)[CH](O)Cc1ccccc1; NMeT = CN[CH](C(=O)O)[CH](C)O; NMeA = CN[CH](C)C(=O)O; NMeDha = C=C(NC)C(=O)O

Tests used:
GLUTag cells = assay: GLP-1 secretion from control-transduced or untransduced GLUTag cells; assay type: cell-based, murine
Method: (§1) GLUTag cells were maintained in Dulbecco’s Modified Eagle Medium (DMEM) supplemented with 10% fetal bovine serum and 1% penicillin–streptomycin in a humidified incubator at 37 °C and 5% CO2. For adenovirus transduction, GLUTag cells were seeded into poly-D-lysine coated 96-well plates or 4-chamber slides. The next day, cells were transduced with adenoviruses (100–1250 viral particles per cell at time of seeding) as indicated. After 24–30 h, adenovirus-containing media was changed to serum-free growth media for overnight serum starvation. The following day, GLUTag cells were used for cAMP or calcium signaling assays, GLP-1 secretion assays, or immunostaining and imaging.
(§2) GLUTag cells were seeded into poly-D-lysine-coated 96-well plates and transduced with adenovirus as specified above and then tested for GLP-1 secretion. Medium was removed and cells were washed two times with GLP-1 secretion buffer (138 mM NaCl, 4.5 mM KCl, 4.2 mM NaHCO3, 2.5 mM CaCl2, 1.2 mM MgCl2, 10 mM HEPES, 1 mM glucose, and 0.1% bovine serum albumin, pH 7.4). Cells were stimulated for 2 h with indicated treatments diluted in GLP-1 secretion buffer for a total volume of 200 µL/well at 37 °C and 5% CO2. Plates were then centrifuged at 300× g for 1 min at 4 °C, and 75 µL of the supernatant was removed and frozen at −80 °C until subsequent GLP-1 quantification. Total GLP-1 was quantified using the Meso Scale Discovery Total GLP-1 V-PLEX kit (Rockville, MD, USA; K1503PD) according to manufacturer’s instructions. For PTX treatment conditions, cells were pretreated with 100 ng/mL PTX overnight. For experiments with YM-254890, cells were pretreated for 15 min at 37 °C and 5% CO2.

hGPR17L [1] = molecular target: T1, hGPR17L (Homo sapiens, UniProt Q13304); assay: GLP-1 secretion from GLUTag cells expressing hGPR17L; assay type: cell-based; parameters: host or cells: GLUTag cells (murine enteroendocrine line), adenoviral transduction
T1 sequence (Q13304 whole entry): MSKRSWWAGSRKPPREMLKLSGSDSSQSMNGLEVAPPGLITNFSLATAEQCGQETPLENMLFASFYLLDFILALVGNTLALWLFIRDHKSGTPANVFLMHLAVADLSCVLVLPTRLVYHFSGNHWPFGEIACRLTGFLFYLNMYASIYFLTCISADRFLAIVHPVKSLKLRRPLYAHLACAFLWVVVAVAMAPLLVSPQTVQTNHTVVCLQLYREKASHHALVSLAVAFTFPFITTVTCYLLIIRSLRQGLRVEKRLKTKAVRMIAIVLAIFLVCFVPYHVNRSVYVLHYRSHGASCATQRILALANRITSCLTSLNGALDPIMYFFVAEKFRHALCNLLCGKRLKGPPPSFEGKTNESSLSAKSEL
Method: as §1, §2

hGPR17L [2] = molecular target: T1, hGPR17L; assay: Endpoint cAMP (HTRF) in GLUTag cells expressing hGPR17L; assay type: cell-based; parameters: host or cells: GLUTag cells (murine enteroendocrine line), adenoviral transduction; details: for Predicted (LS) mean diff.: Fig 2B, Forskolin, +Vehicle vs. +100 nM YM-254890
Method: as §1
Endpoint cAMP measurements were conducted as follows. GLUTag cells were seeded into poly-D-lysine-coated 96-well plates and transduced with adenovirus as specified above and then tested for cAMP signaling. Medium was removed and cells were washed with cAMP stimulation buffer (Hanks’ balanced salt solution (HBSS), 20 mM HEPES, pH 7.4) and then incubated in cAMP stimulation buffer for 30 min at 37 °C and 5% CO2. Cells were then treated for 30 min with agonist and forskolin in the presence of 500 µM IBMX at 37 °C and 5% CO2. Stimulation buffer was then decanted, and cAMP lysis buffer (50 mM HEPES, 10 mM CaCl2, 0.35% Triton X-100, and 500 µM IBMX) was added and shaken at 700 rpm for 1 h. Lysate was transferred to a 384-well plate, and the cAMP levels were quantified using the Cisbio HTRF cAMP (Gi kit; Revvity, Waltham, MA, USA) according to the manufacturer’s protocol.

hGPR17L [3] = molecular target: T1, hGPR17L; assay: Calcium flux (Calcium 6) in GLUTag cells expressing hGPR17L; assay type: cell-based; parameters: host or cells: GLUTag cells (murine enteroendocrine line), adenoviral transduction
Method: as §1
GLUTag cells were seeded into black, clear bottom, poly-D-lysine-coated 96-well plates. Cells were transduced and serum starved as specified above. Growth medium was then replaced with 100 μL/well assay buffer (HBSS, 20 mM HEPES, pH 7.4) and 100 μL/well Calcium 6 loading dye (R8190; Molecular Devices, San Jose, CA, USA). During dye loading, cells were incubated at 37 °C and 5% CO2 for 2 h. MDL29,951 or KCl was added to the wells and fluorescence (485 nm excitation, 525 nm emission, and 515 nm automatic emission cutoff) was measured using a Molecular Devices FlexStation3 (Molecular Devices) at 37 °C. For experiments with PTX, cells were pretreated with 100 ng/mL PTX overnight and 100 ng/mL PTX was included with Calcium 6 loading dye for calcium flux assays. For experiments with YM-254890, cells were pretreated for 30 min at 37 °C.

Compound: CCCCCCCCCCCCCC(=O)O[C@@H]1[C@@H](C)[C@@]2(O)[C@@H](C=C(CO)C[C@]3(O)C(=O)C(C)=C[C@@H]23)[C@@H]2C(C)(C)[C@]12OC(C)=O [PMA, phorbol 12-myristate 13-acetate]
increase in GLP-1 secretion (GLUTag cells; 300 nM PMA, control transduction condition): 4.14 ± 0.18 fold

Compound: somatostatin (AGCKNFFWKTFTSC; ends and bridges not checked; cysteine pairing not given here; UniProt P61278 103-116, looked up) [SST, Endogenous somatostatin receptor agonist]
effect on F/I-stimulated GLP-1 secretion (GLUTag cells; 1 µM SST, control- and hGPR17L-transduced cells (Figure S4A,B)): inhibited

Compound: Cc1onc(-c2ccccc2Cl)c1C(=O)N(C)c1ccc(Cl)cc1 [GPBAR-A]
increase in GLP-1 secretion (GLUTag cells; 10 µM GPBAR-A, control transduction condition): 2.67 ± 0.17 fold

Second part, led by results:

effect on MDL29,951-mediated inhibition of F/I-stimulated GLP-1 secretion (hGPR17L [1]; 10 µM HAMI3379): significantly attenuated
Compound: O=C(O)c1ccc(OCCCc2ccc(OCCCCOC3CCCCC3)cc2)c(C(=O)NC2CCCC(C(=O)O)C2)c1 (centres unmarked) [HAMI3379]

effect on basal cAMP (hGPR17L [2]; 100 ng/mL PTX or 100 nM YM-254890, control- or hGPR17L-transduced): no effects
Predicted (LS) mean diff. (hGPR17L [2]; log [MDL29,951] (M) -4.0): 17.41
Predicted (LS) mean diff. (hGPR17L [2]; log [MDL29,951] (M) -4.6): 19.49
Predicted (LS) mean diff. (hGPR17L [2]; log [MDL29,951] (M) -5.2): 17.04
Predicted (LS) mean diff. (hGPR17L [2]; log [MDL29,951] (M) -5.8): 11.34
Predicted (LS) mean diff. (hGPR17L [2]; log [MDL29,951] (M) -6.4): 5.843
Predicted (LS) mean diff. (hGPR17L [2]; log [MDL29,951] (M) -7.0): 2.922
Predicted (LS) mean diff. (hGPR17L [2]; log [MDL29,951] (M) -7.6): 8.08
Predicted (LS) mean diff. (hGPR17L [2]; log [MDL29,951] (M) -8.2): 13.01
Predicted (LS) mean diff. (hGPR17L [2]; log [MDL29,951] (M) -8.8): 10.15
Predicted (LS) mean diff. (hGPR17L [2]; log [MDL29,951] (M) -9.4): 6.783
effect on 15 mM KCl-stimulated calcium mobilization (hGPR17L [3]; 100 ng/mL PTX or 100 nM YM-254890, Figure 2D): no effect
concentration giving robust inhibition of MDL29,951-stimulated calcium mobilization (hGPR17L [3]; 1 µM MDL29,951, concentration-response): ~ 100 nM
effect on 15 mM KCl-stimulated calcium flux (hGPR17L [3]; YM-254890 concentration-response, Figure S5D): no effect
effect on PMA-stimulated GLP-1 secretion (hGPR17L [1]; 100 nM YM-254890, 300 nM PMA, control or hGPR17L-expressing cells): no effect
effect on MDL29,951-mediated inhibition of PMA-stimulated GLP-1 secretion (hGPR17L [1]; 100 nM YM-254890, 100 µM MDL29,951, 300 nM PMA): no effect
effect on F/I-stimulated GLP-1 secretion (hGPR17L [1]; 3 µM YM-254890, hGPR17L-expressing cells): strong inhibitory effects
Compound: C=C1C(=O)NC(C)C(=O)N(C)C(C)C(=O)NC(C(OC(=O)C(NC(C)=O)C(O)C(C)C)C(C)C)C(=O)N(C)C(C(C)OC)C(=O)OC(C)C(NC(C)=O)C(=O)OC(Cc2ccccc2)C(=O)N1C (centres unmarked) [YM-254890] (Ac-T[PhLac][NMeDha]A[NMeA][X1][NMeT](Me); ester 1-C; configuration not given here)
effect on F/I-stimulated GLP-1 secretion (GLUTag cells; 100 nM YM-254890, GLUTag cells): inhibited
effect on F/I-stimulated GLP-1 secretion (GLUTag cells; 3 µM YM-254890, control cells): strong inhibitory effects
effect on PMA-stimulated GLP-1 secretion (GLUTag cells; YM-254890 concentration–response, 300 nM PMA): no effect

cAMP levels in response to PGE2 stimulation, % of the control-transduced cells (hGPR17L [2]; 300 nM PGE2, hGPR17L-expressing cells): 83 ± 5.5%
Compound: CCCCC[C@H](O)/C=C/[C@H]1[C@H](O)CC(=O)[C@@H]1C/C=C\CCCC(=O)O [PGE2, prostaglandin E2]
increase in GLP-1 secretion (GLUTag cells; 300 nM PGE2, control transduction condition): 1.90 ± 0.06 fold
